# Measured values from patent publication US20140187548A1, “6 SUBSTITUTED IMIDAZOPYRAZINES FOR USE AS MPS-1 AND TKK INHIBITORS IN THE TREATMENT OF HYPERPROLIFERATIVE DISORDERS” (BAYER INTELLECTUAL PROPERTY GMBH, priority 2010, published 2014).
# Target: T1, human kinase Mps-1 (Homo sapiens, UniProt P33981)
# T1 construct: N-terminally GST-tagged human full length recombinant Mps-1 kinase; GST (N); purchased Invitrogen, Karslruhe, Germany PV4071
# T1 sequence (P33981 1-857): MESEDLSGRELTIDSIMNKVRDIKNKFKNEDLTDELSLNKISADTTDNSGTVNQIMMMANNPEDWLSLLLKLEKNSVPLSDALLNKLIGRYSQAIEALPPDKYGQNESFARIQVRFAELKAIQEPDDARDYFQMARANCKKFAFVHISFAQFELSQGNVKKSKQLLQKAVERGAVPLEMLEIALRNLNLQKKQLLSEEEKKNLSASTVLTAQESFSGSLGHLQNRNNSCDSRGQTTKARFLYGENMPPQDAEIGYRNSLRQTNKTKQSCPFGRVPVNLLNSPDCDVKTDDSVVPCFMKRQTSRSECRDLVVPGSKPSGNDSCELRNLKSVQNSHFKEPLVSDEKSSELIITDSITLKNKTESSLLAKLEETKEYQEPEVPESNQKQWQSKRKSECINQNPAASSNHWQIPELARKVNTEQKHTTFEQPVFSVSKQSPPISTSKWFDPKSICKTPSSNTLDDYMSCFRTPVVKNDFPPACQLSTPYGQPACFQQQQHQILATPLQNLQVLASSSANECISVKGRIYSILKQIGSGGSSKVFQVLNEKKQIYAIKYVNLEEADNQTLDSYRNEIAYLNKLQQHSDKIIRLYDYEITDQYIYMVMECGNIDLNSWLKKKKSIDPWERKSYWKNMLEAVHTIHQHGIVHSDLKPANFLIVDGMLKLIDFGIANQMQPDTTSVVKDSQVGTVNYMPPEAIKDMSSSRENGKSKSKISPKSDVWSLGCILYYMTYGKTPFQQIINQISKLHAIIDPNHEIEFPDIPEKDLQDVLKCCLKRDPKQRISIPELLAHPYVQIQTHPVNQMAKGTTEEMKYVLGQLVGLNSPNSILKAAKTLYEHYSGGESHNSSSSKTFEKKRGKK
# Test: Mps-1 kinase assay (TR-FRET)
# Assay type: biochemical
# Details: N-terminally GST-tagged human full length recombinant Mps-1; 10 μM ATP; 1 μM peptide substrate; 15 min pre-incubation; 60 min at 22° C.
# How it was run: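 TR-FRET read-out: after 1 h binding at 22° C, Eu-labelled anti-phospho-Ser/Thr antibody transfers to SA-XLent on the phosphorylated biotinylated peptide. The enzyme is GST-tagged full-length human Mps-1, typically about 1 nM final, in the linear range.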
row,IC50,Structure (SMILES)
1,3.2 nM,"CC(C)CCNc1nc(-c2ccccc2)cn2c(-c3ccc(C(=O)NC4CC4)cc3)cnc12 [Example 2-4, N-cyclopropyl-4-{8-[(3-methylbutyl)amino]-6-phenylimidazo[1,2-a]pyrazin-3-yl}benzamide]"
2,6.5 nM,"Cc1ccccc1CNc1nc(-c2ccccc2)cn2c(-c3ccc(C(=O)NC4CC4)cc3)cnc12 [Example 2-5, N-cyclopropyl-4-{8-[(2-methylbenzyl)amino]-6-phenylimidazo[1,2-a]pyrazin-3-yl}benzamide]"
3,13.8 nM,"O=C(NC1CC1)c1ccc(-c2cnc3c(NCc4cccc(Cl)c4)nc(-c4ccccc4)cn23)cc1 [Example 2-6, 4-{8-[(3-chlorobenzyl)amino]-6-phenylimidazo [1,2-a]pyrazin-3-yl}-N-cyclopropylbenzamide]"
4,25 nM,"O=C(NC1CC1)c1ccc(-c2cnc3c(NCCc4ccccc4)nc(-c4ccccc4)cn23)cc1 [Example 2-7, N-cyclopropyl-4-{6-phenyl-8-[(2-phenylethyl)amino]imidazo[1,2-a]pyrazin-3-yl} benzamide]"
5,2.1 nM,"O=C(NC1CC1)c1ccc(-c2cnc3c(NCC4CCCO4)nc(-c4ccccc4)cn23)cc1 (stereo not drawn) [Example 2-8, N-cyclopropyl-4-{6-phenyl-8-[(tetrahydrofuran-2-ylmethyl)amino]imidazo[1,2-a]pyrazin-3-yl}benzamide]"
6,4.8 nM,"O=C(NC1CC1)c1ccc(-c2cnc3c(NCCCN4CCCC4=O)nc(-c4ccccc4)cn23)cc1 [Example 2-9, N-cyclopropyl-4-(8-{[3-(2-oxopyrrolidin-1-yl)propyl]amino}-6-phenylimidazo[1,2-a]pyrazin-3-yl)benzamide]"
7,16.6 nM,"CN1CCCC1CCNc1nc(-c2ccccc2)cn2c(-c3ccc(C(=O)NC4CC4)cc3)cnc12 (stereo not drawn) [Example 2-10, N-cyclopropyl-4-(8-{[2-(1-methylpyrrolidin-2-yl)ethyl]amino}-6-phenylimidazo[1,2-a]pyrazin-3-yl)benzamide]"
8,31.6 nM,"O=C(NC1CC1)c1ccc(-c2cnc3c(NCCN4CCCCC4)nc(-c4ccccc4)cn23)cc1 [Example 2-11, N-cyclopropyl-4-(6-phenyl-8-{[2-(piperidin-1-yl)ethyl]amino}imidazo[1,2-a]pyrazin-3-yl)benzamide]"
9,1.7 nM,"COCCNc1nc(-c2ccccc2)cn2c(-c3ccc(C(=O)NC4CC4)cc3)cnc12 [Example 2-12, N-cyclopropyl-4-{8-[(2-methoxyethyl)amino]-6-phenylimidazo[1,2-a]pyrazin-3-yl}benzamide]"
10,1.4 nM,"O=C(NC1CC1)c1ccc(-c2cnc3c(NCc4ccccc4F)nc(-c4ccccc4)cn23)cc1 [Example 2-13, N-cyclopropyl-4-{8-[(2-fluorobenzyl)amino]-6-phenylimidazo[1,2-a]pyrazin-3-yl}benzamide]"
11,2.9 nM,"O=C(NC1CC1)c1ccc(-c2cnc3c(NCc4ccc(F)cc4)nc(-c4ccccc4)cn23)cc1 [Example 2-14, N-cyclopropyl-4-{8-[(4-fluorobenzyl)amino]-6-phenylimidazo[1,2-a]pyrazin-3-yl}benzamide]"
12,3.8 nM,"O=C(NC1CC1)c1ccc(-c2cnc3c(NCc4ccccc4)nc(-c4ccccc4)cn23)cc1 [Example 2-15, 4-[8-(benzylamino)-6-phenylimidazo[1,2-a]pyrazin-3-yl]-N-cyclopropyl-benzamide]"
13,3.3 nM,"CCNc1nc(-c2ccccc2)cn2c(-c3ccc(C(=O)NC4CC4)cc3)cnc12 [Example 2-16, N-cyclopropyl-4-[8-(ethylamino)-6-phenylimidazo [1,2-a]pyrazin-3-yl]benzamide]"
14,1.6 nM,"O=C(NC1CC1)c1ccc(-c2cnc3c(NCCCO)nc(-c4ccccc4)cn23)cc1 [Example 2-17, N-cyclopropyl-4-{8-[(3-hydroxypropyl)amino]-6-phenylimidazo[1,2-a]pyrazin-3-yl}benzamide]"
15,26.8 nM,"CN(C)CCCNc1nc(-c2ccccc2)cn2c(-c3ccc(C(=O)NC4CC4)cc3)cnc12 [Example 2-18, N-cyclopropyl-4-(8-{[3-(dimethylamino)propyl]amino}-6-phenylimidazo[1,2-a]pyrazin-3-yl)benzamide]"
